The target in experiment [1] is T1, P450 2S1 (Homo sapiens, UniProt Q96SQ9).
T1 sequence (Q96SQ9 1-504): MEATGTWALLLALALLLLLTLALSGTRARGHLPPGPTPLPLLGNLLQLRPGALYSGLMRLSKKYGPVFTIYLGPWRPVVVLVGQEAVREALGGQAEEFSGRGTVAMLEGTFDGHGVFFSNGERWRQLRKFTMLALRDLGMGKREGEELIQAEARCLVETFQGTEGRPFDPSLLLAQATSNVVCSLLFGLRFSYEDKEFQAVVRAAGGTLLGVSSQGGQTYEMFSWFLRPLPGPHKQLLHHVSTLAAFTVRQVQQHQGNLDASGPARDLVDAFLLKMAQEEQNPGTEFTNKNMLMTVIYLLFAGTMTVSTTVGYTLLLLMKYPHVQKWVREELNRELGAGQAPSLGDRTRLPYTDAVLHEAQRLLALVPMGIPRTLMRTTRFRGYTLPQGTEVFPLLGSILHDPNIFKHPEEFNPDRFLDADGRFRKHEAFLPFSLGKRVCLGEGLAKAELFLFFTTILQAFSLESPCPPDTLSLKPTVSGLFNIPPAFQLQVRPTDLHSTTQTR
The experiment is classed as biochemical.

Experiment [2] has as its target T1, P450 2S1. The experiment is classed as biochemical. This is another data set of the same source.
The target of experiment [3] is T1, P450 2S1. The format is biochemical. The source holds these as a separate data set.
Experiment [4] has as its target T1, P450 2S1. As to the kind of experiment: UV-visible difference spectral titration of purified P450 2S1. The format is binding.

As for `ONc1ccc2c(c1)Cc1ccccc1-2` [2-HONH-fluorene], on P450 2S1 [1], the “anaerobic reduction to 2-aminofluorene by purified P450 2S1, HPLC, minus-P450 co” value is 0.34 ± 0.12 min⁻¹.
On to `ONc1ccc2ccccc2c1` [2-HONH-naphthalene], for which, at P450 2S1 [2], the “anaerobic reduction to 2-naphthylamine by purified P450 2S1, HPLC, minus-P450 co” value was 2.4 ± 0.8 min⁻¹.
For `ONc1ccc(-c2ccccc2)cc1` [4-HONH-biphenyl], on P450 2S1 [3], the “anaerobic reduction to 4-aminobiphenyl by purified P450 2S1, HPLC, minus-P450 co” value came out at 0.18 ± 0.01 min⁻¹.
As to `Cc1cc(-c2nc3cc(F)ccc3s2)ccc1NO` [HONH-5F 203, 2-(4-hydroxylamino-3-methylphenyl)-5-fluorobenzothiazole], the Kd on P450 2S1 [4] worked out at 30 ± 10 µM.

In general, Kd refers to the constant that tells how readily two partners part at equilibrium.

For the origin of these results see paper PMC3707514 (Chemical research in toxicology, 2013).
